In US11440922B2, “Heterocyclylmethylidene derivatives and their use as modulators of mGluR5 receptors” (Recordati Industria Chimica e Farmaceutica S.p.A., priority 2017, dated 2022):

Key:
[1] = target: human mGluR5 receptor (Homo sapiens (Human), UniProt P41594); experiment: Radioligand binding assay at cloned human mGluR5 receptor subtype ([3H]MPEP); settings: 4 nM [3H]MPEP, CHO T-REx h-mGluR5 cells, 60 min at 25° C.; read-out: mGlu5 Ki
Source text: (§1) Cell lines stably transfected were generated using inducible expression vectors encoding human mGlu5 receptor using the Tetracycline-Regulated Expression system (T-REx™ system, Invitrogen, Life Technologies). Human mGluR5 open reading frame (ORF), comprehensive of the stop codon, were cloned into the pcDNA4/TO/myc-His™ A vector, carrying the TetO2. The insertion site was HindIII-PstI for mGluR5 receptors. The obtained constructs were then transfected into the T-REx CHO™ cell line using the FuGENE protocol (Roche); the CHO T-REx™ cell line stably expresses the Tet repressor (from the pcDNA6/TR plasmid) under the selection of blasticidin, 10 μg/ml. Stable clones were obtained selecting with zeocin 1 mg/ml and maintaining in ULTRA CHO medium (LONZA) supplemented with dialyzed FBS, zeocin, blasticidine, at 37° C., in an atmosphere of 5% CO2. The expression of h-mGluR5 receptors was de-repressed with 1 μg/ml tetracycline for 18 h before binding experimentation, while the expression of h-mGluR5 receptors was derepressed respectively with 3 ng/ml and 10 ng/ml tetracycline for 18 h before calcium fluorescence experimentation.
Radioligand Binding Assay at Cloned Human mGluR5 Receptor Subtype
Affinity at transmembrane glutamate metabotropic cloned human mGluR5 receptor was evaluated according to the methods of Anderson (Anderson et al., J Pharmacol. Exp. Ther., (2002), Vol. 303(3), pp. 1044-51), with some modifications. Human cloned mGluR5 was obtained by re-suspending CHO T-REx h-mGluR5 cells (50 μg/well) in 20 mM HEPES, 2 mM MgCl2, 2 mM CaCl2, pH 7.4, that then were incubated in a final volume of 1 ml for 60 min at 25° C. with 4 nM [^3H]MPEP in the absence or presence of competing drugs. Non-specific binding was determined in the presence of 10 μM MPEP. The incubation was stopped by addition of cold Tris buffer pH 7.4 and rapid filtration through 0.2% polyethyleneimine pretreated Filtermat 1204-401 (Perkin Elmer) filters. The filters were then washed with cold buffer and the radioactivity retained on the filters was counted by liquid scintillation spectrometry (Betaplate 1204 BS-Wallac).
(§2) The inhibition curves of the tested compounds at cloned mGluR5 subtypes were determined by nonlinear regression analysis using software Prism 4.0 (Graphpad, San Diego, Calif.). The IC50 values and pseudo-Hill slope coefficients were estimated by the program. The values for the inhibition constant, Ki, were calculated according to the equation Ki=IC50/(1+[L]/Kd), where [L] is the concentration of radioligand and Kd is the equilibrium dissociation constant of the radioligand-receptor complex (Cheng et al., Biochem. Pharmacol. (1973), Vol. 22, pp. 3099-3108).

[2] = target: T1, human mGlu5 receptor (Homo sapiens (Human), UniProt P41594); experiment: Calcium fluorescence measurements, antagonist potency (negative allosteric modulator activity); assay type: cell-based; settings: EC80 of quisqualate as agonist, compounds applied 10 minutes before agonist
T1 sequence (P41594 21-1212): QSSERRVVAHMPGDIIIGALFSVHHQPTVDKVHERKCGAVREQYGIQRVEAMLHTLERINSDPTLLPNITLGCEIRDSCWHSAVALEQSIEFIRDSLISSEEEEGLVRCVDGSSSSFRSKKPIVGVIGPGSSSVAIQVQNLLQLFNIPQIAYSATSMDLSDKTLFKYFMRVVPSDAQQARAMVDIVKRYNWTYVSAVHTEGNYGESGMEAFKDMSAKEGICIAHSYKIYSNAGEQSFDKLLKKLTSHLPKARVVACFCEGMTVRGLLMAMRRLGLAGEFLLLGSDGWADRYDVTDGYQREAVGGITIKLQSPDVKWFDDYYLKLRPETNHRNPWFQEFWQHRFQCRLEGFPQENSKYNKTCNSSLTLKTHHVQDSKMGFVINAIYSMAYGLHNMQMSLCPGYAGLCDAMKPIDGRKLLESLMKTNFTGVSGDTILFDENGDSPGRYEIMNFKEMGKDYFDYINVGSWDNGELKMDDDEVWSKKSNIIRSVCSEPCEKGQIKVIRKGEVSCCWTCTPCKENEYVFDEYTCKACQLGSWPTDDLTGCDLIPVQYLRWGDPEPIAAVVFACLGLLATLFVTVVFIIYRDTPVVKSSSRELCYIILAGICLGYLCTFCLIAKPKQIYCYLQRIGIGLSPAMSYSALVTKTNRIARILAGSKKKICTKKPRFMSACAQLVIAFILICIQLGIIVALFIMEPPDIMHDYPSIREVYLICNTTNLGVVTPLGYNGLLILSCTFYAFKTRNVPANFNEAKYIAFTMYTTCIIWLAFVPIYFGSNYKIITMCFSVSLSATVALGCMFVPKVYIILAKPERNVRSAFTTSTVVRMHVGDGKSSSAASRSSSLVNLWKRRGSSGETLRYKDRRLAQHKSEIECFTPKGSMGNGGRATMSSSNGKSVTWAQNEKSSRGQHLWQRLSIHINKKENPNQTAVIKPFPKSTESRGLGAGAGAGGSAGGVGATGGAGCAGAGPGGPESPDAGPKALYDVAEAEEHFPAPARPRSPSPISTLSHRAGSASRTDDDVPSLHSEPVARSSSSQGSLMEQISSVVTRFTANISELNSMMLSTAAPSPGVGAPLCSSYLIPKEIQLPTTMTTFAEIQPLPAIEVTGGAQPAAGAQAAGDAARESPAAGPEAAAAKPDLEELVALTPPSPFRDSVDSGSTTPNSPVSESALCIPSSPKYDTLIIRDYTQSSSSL
Source text: as §1
(§3) Cells were seeded into black-walled, clear-bottom, 96-well plates at a density of 80000 cell/well, in RPMI (without Phenol Red, without L-glutamine; Gibco LifeTechnologies, CA) supplemented with 10% dialyzed FBS. Following 18-h incubation with tetracycline, the cells were loaded with […] Ca^2+-sensitive fluorescent dye Fluo-4/AM (Molecular Probes) in Hanks' balanced saline solution (HBSS, Gibco LifeTechnologies, CA) with […] Hepes (Sigma) and 2.5 mM probenecid (Sigma), for 1 h at 37° C. The cells were washed three times with HBSS to remove extracellular dye. Fluorescence signals were measured by using the fluorescence microplate reader Flexstation III (Molecular Devices) at sampling intervals of 1.5 s for 60 s.
(§4) The antagonist potency was determined using the EC80 of the quisqualate used as agonist and the potentiation of mGlu5 activation was determined using the EC20 of the agonist (quisqualate or glutamate). The compounds were applied 10 minutes before the application of the agonist.
(§5) The negative allosteric modulator activity (expressed as IC50) and the positive allosteric modulator activity (expressed as EC50) of the compounds of the invention for the mGlu5 receptors is between 0.1 and 1000 nM.
as §2

[3] = system: conscious rats; experiment: Effect on cystometry in conscious rats; assay type: in vivo, rat; settings: Minimal Effective Dose that induces statistically significant increase of bladder volume capacity
Protocol: Male Sprague-Dawley rats [Crl:CD(SD) IGS BR] of 300-400 g b.w. supplied by Charles River Italia were used. The animals were housed with free access to food and water and maintained on a forced 12-hour-light/12-hour-dark cycle at 22-24° C. of temperature, except during the experiment. To quantify urodynamic parameters in conscious rats, cystometrographic studies were performed according to the procedure previously reported (Guarneri et al., Pharmacol. Res. Vol. 24, No. 2, pp. 175-187, 1991).
Briefly, the rats were anaesthetized by intraperitoneal administration of 3 ml/kg of Equithensin solution (pentobarbital 30 mg/kg and chloral hydrate 125 mg/kg) and placed in a supine position. An approximately 10 mm long midline incision was made in the shaved and cleaned abdominal wall. The urinary bladder was gently freed from adhering tissues, emptied and then cannulated via an incision in the bladder body, using a polyethylene cannula (0.58 mm internal diameter, 0.96 mm external diameter) which was permanently sutured with silk thread. […]
On the day of the experiment, the rats were placed in modified Bollman cages, i.e., restraining cages that were large enough to permit the rats to adopt a normal crouched posture, but narrow enough to prevent turning around. […] The intraluminal-pressure signal during infusion of saline into the bladder (cystometrogram) was continuously recorded on a polygraph (Rectigraph-8K San-ei with BM614/2 amplifier from Biomedica Mangoni) or stored on PC by data acquisition system (PowerLab, Chart 4 software, AD Instruments). From the cystometrogram, bladder volume capacity (BVC) was evaluated. […] Basal BVC value was evaluated as the mean of the values observed in the cystometrograms recorded in an initial period of 30-60 minutes. […] The bladder infusion restarted and changes in BVC were evaluated from the mean values obtained in the cystometrograms observed during 1, 2, and 3 hours after treatment. […]
Each experimental group was composed of 4-11 animals. All data were expressed as mean±standard error. […]

[4] = target: T1, human mGlu5 receptor; experiment: Calcium fluorescence measurements, potentiation of mGlu5 activation (positive allosteric modulator activity); assay type: cell-based; settings: EC20 of the agonist (quisqualate or glutamate), compounds applied 10 minutes before agonist
Source text: as §1, §3, §4, §5

[5] = target: T1, human mGlu5 receptor; experiment: Fold shift of agonist curve determination; assay type: cell-based; settings: ratio of EC50 agonist (quisqualate or glutamate) curves in presence and in absence of test compound; compound at 1 μM
Source text: as §1, §3
The PAM potency was evaluated by performing an agonist concentration response curve in the presence of the compounds. The compounds at fixed concentration (0.01 or 0.1 or 1 μM) were applied 10 minutes before the incubation of the agonist (quisqualate or glutamate) dose-response curve. The fold shift was determined as ratio of EC50 agonist curves in presence and in absence of test compound. For instance, and in particular compound 34 has a fold shift of 2.7.

[6] = system: C57/BL/6J mice; experiment: Novel object recognition test in mice; assay type: in vivo, mouse; settings: intraperitoneal route, 30 min before training, memory assessed 24 h after training
Protocol: Novel object memory was assessed during three sessions. This task relies on the innate tendency of a mouse to explore unfamiliar objects vs. familiar objects. Testing was performed in an open-field arena. 24 h prior to training, C57/BL/6J 5-week male mice were habituated to the arena for 10 min (session 1).
During training, mice were administered by intraperitoneal route with the vehicle or the tested compound and after 30 min they were allowed for 5 min to explore two identical objects (A+A, session 2). Long-term object memory was assessed 24 h after the completion of training during which mice were given 5 min to explore the familiar (A) or the novel (B) object (A+B, session 3). The duration of exploration (defined as the mouse's snout or forelimbs physically touching or approaching within 1 cm of an object) of familiar and novel object was measured. The amount of time spent exploring the novel object over the total time exploring both novel and familiar object in each session was used to measure object memory.
For instance, and in particular the activity of compound of Example 34, expressed as MED (Minimal Effective Dose that induces statistically significant difference of exploration of the two objects) is of 10 mg/kg. Statistical analysis of exploration time values, was performed by using a paired Student's test, which was calculated using GraphPad Prisma 4.

Chain of human mGluR5 receptor (P41594 21-1212): as above

| Compound | Ki [1] [nM] | IC50 [2] [nM] | “In vivo” cystometry MED (mg/kg os) [3] [mg/kg] | EC50 [4] [nM] | mGlu5 Fold Shift @1 μM [5] | MED (Minimal Effective Dose that induces statistically significant difference of exploration of the two objects) [6] [mg/kg] |
| --- | --- | --- | --- | --- | --- | --- |
| CCOC(=O)N1CC/C(=C\C#Cc2cc(OC)ccn2)C(C)(C)C1 [Example 25, ethyl (4E)-4-[3-(4-methoxypyridin-2-yl)prop-2-yn-1-ylidene]-3,3-dimethylpiperidine-1-carboxylate] | 28.6 | 31.8 | – | – | – | – |
| CCOC(=O)N1CC/C(=C\C#Cc2cccc(C#N)c2)C(C)(C)C1 [Example 27, ethyl (4E)-4-[3-(3-cyanophenyl)prop-2-yn-1-ylidene]-3,3-dimethylpiperidine-1-carboxylate] | 0.64 | 8.6 | – | – | – | – |
| CCOC(=O)N1CC/C(=C\C#Cc2cccc(CC#N)c2)C(C)(C)C1 [Example 28, ethyl (4E)-4-{3-[3-(cyanomethyl)phenyl]prop-2-yn-1-ylidene}-3,3-dimethylpiperidine-1-carboxylate] | 2.12 | 37.2 | – | – | – | – |
| CCOC(=O)N1CC/C(=C\C#Cc2cc(C#N)ccn2)C(C)(C)C1 [Example 31, ethyl (4E)-4-[3-(4-cyanopyridin-2-yl)prop-2-yn-1-ylidene]-3,3-dimethylpiperidine-1-carboxylate] | 2.93 | 13.5 | 1 | – | – | – |
| CCOC(=O)N1CC/C(=C\C#Cc2cc(F)cc(C#N)c2)C(C)(C)C1 [Example 32, ethyl (4E)-4-[3-(3-cyano-5-fluorophenyl)prop-2-yn-1-ylidene]-3,3-dimethylpiperidine-1-carboxylate] | 16.1 | 60 | – | – | – | – |
| CC1(C)CN(C(=O)c2cccc(Cl)c2)CC/C1=C\C#Cc1cccc(Cl)c1 [Example 34, (3-chlorophenyl){(4E)-4-[3-(3-chlorophenyl)prop-2-yn-1-ylidene]-3,3-dimethylpiperidin-1-yl}methanone] | 0.99 | – | – | 107 | 2.7 | 10 |
| COC(=O)N1CC/C(=C\C#Cc2cccc(Cl)c2)C(C)(C)C1 [Example 40, methyl (4E)-4-[3-(3-chlorophenyl)prop-2-yn-1-ylidene]-3,3-dimethylpiperidine-1-carboxylate] | 1.29 | 18.2 | 3 | – | – | – |
| CCOC(=O)N1CC/C(=C\C#Cc2cccc(C)n2)C1(C)C [Example 48, ethyl (3E)-2,2-dimethyl-3-[3-(6-methylpyridin-2-yl)prop-2-yn-1-ylidene]pyrrolidine-1-carboxylate] | 2.44 | 2.02 | 1 | – | – | – |
| CCOC(=O)N1CC/C(=C\C#Cc2cc(Cl)ccn2)C1(C)C [Example 91, ethyl (3E)-3-[3-(4-chloropyridin-2-yl)prop-2-yn-1-ylidene]-2,2-dimethylpyrrolidine-1-carboxylate] | 16.3 | 31.6 | – | – | – | – |
| CCOC(=O)N1CC/C(=C\C#Cc2cccc(Cl)c2)C1(C)C [Example 101, ethyl (3E)-3-[3-(3-chlorophenyl)prop-2-yn-1-ylidene]-2,2-dimethylpyrrolidine-1-carboxylate] | 11.2 | 66.3 | – | – | – | – |
